Assay results from article PMC7615676, “Short-course combination treatment for experimental chronic Chagas disease” (Science translational medicine, 2023).
“And” between values parts separate entries of the source, which are not always exact repeats. Equal entries are not always repeated. Where two headings read alike, the source gives them in different places.

Legend:
T. cruzi CYP51 = T. cruzi CYP51 (Trypanosoma cruzi, UniProt Q7Z1V1); test: T. cruzi CYP51 biochemical assay
[1] = bioanalysis of blood samples from in vivo efficacy studies; set-up: species or system BALB/c mice; settings: for AUC0-7h Day 1, unbound concentrations of 4 / AUC0-7h Day 5, unbound concentrations of 4 / Cmax Day 1, unbound concentrations of 4 / Cmax Day 5, unbound concentrations of 4: 5 days; for AUC(0-t) / Cmax: BALB/c, mouse, whole blood, po
Description: Following the first daily dose on day 1 and last day of treatment, serial blood samples were taken by the tail vein from all treated mice pre-dose, then 30 minutes, 1, 2, 4, and 8 hours post-dose, mixed with two volumes of distilled water and analyzed for test compound. Quantification of compounds was performed by means of LC/MSMS and exposure parameters namely Cmax and AUClast were estimated using Phoenix 64 (Pharsight Certara).

Vero host cells = test: cytotoxicity against host cells in intracellular amastigote assay; type: cell-based; settings: Chlorocebus sabaeus, Vero, host cell cytotoxicity
[2] = test system: isolated rat liver mitochondria; test: calcium loading capacity (CLC) in rat liver mitochondria; type: biochemical; settings: minimum effective concentration
Description: The CLC of freshly isolated liver mitochondria was determined as previously described ([70]). Briefly, mitochondria were suspended at 0.2 mg/ml in incubation buffer B, supplemented with 100 μM arsenazo III, 2.5 μM rotenone and 1 μg/ml oligomycin in each well of a 96 well microplate (control and treated mitochondria were assayed simultaneously) and absorbance measured every 2 seconds at 650 nm in a FlexStation3 microplate reader (Molecular Devices, Sunnyvale, CA, USA). After approximately 1 minute of reading, Ca^2+ was added (0.5-1 μmol/ mg mitochondrial protein) followed by the addition of 10 mM succinate as the mitochondrial substrate. The CLC was calculated as the difference in optical density (ΔOD) between the point at which mitochondria were energized and the point where mitochondrial permeability transition was triggered (i.e., the lowest OD reading before calcium release via MPT).
The concentration-response relationship was modelled using a robust fit of a cubic polynomial regression ([74], [75]). The fitted curves were then used to calculate the Minimum Effective Concentration (MEC). The MEC was defined as the lowest concentration where the fitted curve exceeded 3 standard deviations (SD) around the DMSO mean response. SD was estimated from the deviations of DMSO and compound treated wells around the fitted means, using a robust estimator based on Gini’s mean difference ([76]).

[3] = test system: T. cruzi culture derived trypomastigotes, strain Silvio X10/7 A1; test: trypomastigote assay; type: cell-based; settings: Trypanosoma cruzi
Description: Trypomastigote assays using strain Silvio X10/7 subclone A1 were carried out as described in ([19]). Parasite culture and potency determinations for panel of strains were performed as in ([19]). Strains used were M6241 clone 6 (DTU III), ERA clone 2 (DTU IV), PAH179 clone 5 (DTU V) and CL Brener-Luciferase (PpyRE9h-expressing T. cruzi, same strain that is used in animal model studies ([67])) (DTU VI). […] For Y strain compound exposure time was 3 days. Rate-of-kill assays were carried out as described in ([39]).

[4] = target: T1, Human complex III (bc1), mitochondria from THP-1 (Homo sapiens, UniProt P00156); test: human complex III inhibition assay; type: biochemical
T1 construct: Preparation of mitochondria from a human cell line (THP-1); endogenous in cells; host or cells: THP-1 (human) mitochondria
Description: Preparation of mitochondria from a human cell line (THP-1) was performed following published procedure ([72]). The protocol for the assay has been described in ([73]).

[5] = target: T. cruzi complex III (epimastigote lysates) (Trypanosoma cruzi, UniProt Q9T479); test: T. cruzi complex III assay; type: biochemical; settings: decylubiquinol substrate
Chain of T. cruzi complex III (epimastigote lysates) (Q9T479 entry or part of it, one chain of several): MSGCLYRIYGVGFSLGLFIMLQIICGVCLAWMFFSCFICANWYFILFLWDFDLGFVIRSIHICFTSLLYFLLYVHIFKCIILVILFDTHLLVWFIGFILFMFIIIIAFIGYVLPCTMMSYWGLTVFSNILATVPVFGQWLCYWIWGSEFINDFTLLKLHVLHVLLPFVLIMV
Description: Complex III activity within these lysates was monitored in the presence and absence of compound 3, compound 5 and related analogues from this series, using decylubiquinol as a pseudo-substrate ([43]).
Measurement of complex III activity and inhibition were performed as described previously ([43]).

[6] = 4 10 mg/kg bid + BNZ 30mg/kg qd
[7] = 4 30 mg/kg bid + BNZ 30mg/kg qd
[8] = read-out: Vero pEC50 (converted)
[9] = read-out: Trypomastigotes pEC50 (converted)

Chain of T. cruzi CYP51 (Q7Z1V1 whole entry): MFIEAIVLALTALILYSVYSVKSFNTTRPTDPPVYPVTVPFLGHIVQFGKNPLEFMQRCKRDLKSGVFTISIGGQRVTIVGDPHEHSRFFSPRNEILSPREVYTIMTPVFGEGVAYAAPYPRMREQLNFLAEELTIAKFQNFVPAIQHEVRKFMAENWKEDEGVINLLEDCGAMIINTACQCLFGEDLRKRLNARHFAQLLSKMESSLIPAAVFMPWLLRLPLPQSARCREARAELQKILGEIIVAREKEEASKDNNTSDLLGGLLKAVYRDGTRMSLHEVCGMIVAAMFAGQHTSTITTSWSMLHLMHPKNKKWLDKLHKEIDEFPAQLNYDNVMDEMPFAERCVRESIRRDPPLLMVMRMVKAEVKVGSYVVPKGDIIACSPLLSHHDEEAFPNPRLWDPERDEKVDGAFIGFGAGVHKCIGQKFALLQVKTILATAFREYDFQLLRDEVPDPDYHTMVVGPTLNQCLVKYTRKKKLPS

Question: With `COc1ccc(-c2c(C)[nH]c3nc(N)nc(C)c23)c(OC)c1` [Compound 4, 5-(2,4-Dimethoxyphenyl)-4,6-dimethyl-7H-pyrrolo[2,3-d]pyrimidin-2-amine] as the molecule, how does the IC50 (T. cruzi CYP51) read?
Answer: > 100000 nM

Question: What about the “AUC0-7h Day 1, unbound concentrations of 4” value [1, 6] of the same molecule?
Answer: 2419 ± 453 ng·h/mL

Question: What about the “AUC0-7h Day 5, unbound concentrations of 4” value [1, 6] of the same molecule?
Answer: 1488 ± 292 ng·h/mL

Question: What about the “Cmax Day 1, unbound concentrations of 4” value [1, 6] of the same molecule?
Answer: 496 ± 82 ng/mL

Question: What about the “Cmax Day 5, unbound concentrations of 4” value [1, 6] of the same molecule?
Answer: 650 ± 203 ng/mL

Question: And the “AUC0-7h Day 1, unbound concentrations of 4” value [1, 7]?
Answer: 10441 ± 1994 ng·h/mL

Question: What about the “AUC0-7h Day 5, unbound concentrations of 4” value [1, 7] of the same molecule?
Answer: 6773 ± 311 ng·h/mL

Question: What about the “Cmax Day 1, unbound concentrations of 4” value [1, 7] of the same molecule?
Answer: 1931 ± 261 ng/mL

Question: And the “Cmax Day 5, unbound concentrations of 4” value [1, 7]?
Answer: 1577 ± 161 ng/mL

Question: What about the “AUC0-7h Day 1, unbound concentrations of 4” value ([1]; 4 50mg/kg bid alone) of the same molecule?
Answer: 16176 ± 776 ng·h/mL

Question: And the “AUC0-7h Day 5, unbound concentrations of 4” value ([1]; 4 50mg/kg bid alone)?
Answer: 17378 ± 1605 ng·h/mL

Question: What about the “Cmax Day 1, unbound concentrations of 4” value ([1]; 4 50mg/kg bid alone) of the same molecule?
Answer: 2934 ± 294 ng/mL

Question: And the “Cmax Day 5, unbound concentrations of 4” value ([1]; 4 50mg/kg bid alone)?
Answer: 3736 ± 628 ng/mL

Question: And the EC50 (Vero host cells; read-out: Vero EC50)?
Answer: > 50000 nM

Question: What about the EC50 (Vero host cells; [8]) of the same molecule?
Answer: > 50100 nM

Question: What about the “Calcium loading capacity, rat mitochondria, MEC” value [2] of the same molecule?
Answer: >200 µM

Question: What about the EC50 ([3]; read-out: Trypomastigotes EC50) of the same molecule?
Answer: 50 nM

Question: And the EC50 [3, 9]?
Answer: 50.1 nM

Question: And the EC50 [4]?
Answer: > 200000 nM

Question: And the “% inhibition of human bc1, individual replicates” value (from here on “% inhibition of human bc1”) ([4]; 0.09 µM)?
Answer: -12.21% and 6.38%

Question: What about the inhibition at 0.09 µM ([4]; 0.09 µM) of the same molecule?
Answer: -2.92%

Question: And the “% inhibition of human bc1” value ([4]; 0.27 µM)?
Answer: -0.73% and 8.86% and -14.09%

Question: What about the inhibition at 0.27 µM ([4]; 0.27 µM) of the same molecule?
Answer: -1.99%

Question: What about the “% inhibition of human bc1” value ([4]; 0.82 µM) of the same molecule?
Answer: -0.42% and -1.05% and -3.03%

Question: What about the inhibition at 0.82 µM ([4]; 0.82 µM) of the same molecule?
Answer: -1.5%

Question: What about the “% inhibition of human bc1” value ([4]; 2.47 µM) of the same molecule?
Answer: -7.80% and 0.71% and -1.55%

Question: And the inhibition at 2.47 µM ([4]; 2.47 µM)?
Answer: -2.88%

Question: And the “% inhibition of human bc1” value ([4]; 7.41 µM)?
Answer: 20.02% and -3.97% and 5.85%

Question: What about the inhibition at 7.41 µM ([4]; 7.41 µM) of the same molecule?
Answer: 7.3%

Question: What about the “% inhibition of human bc1” value ([4]; 22.22 µM) of the same molecule?
Answer: 11.11% and -1.32% and 9.84%

Question: And the inhibition at 22.22 µM ([4]; 22.22 µM)?
Answer: 6.55%

Question: And the “% inhibition of human bc1” value ([4]; 66.67 µM)?
Answer: 21.01% and 18.54% and -10.78%

Question: And the inhibition at 66.67 µM ([4]; 66.67 µM)?
Answer: 9.59%

Question: What about the “% inhibition of human bc1” value ([4]; 200.00 µM) of the same molecule?
Answer: 5.17% and 18.62% and -0.60%

Question: What about the inhibition at 200 µM ([4]; 200.00 µM, read-out: Average % inhibition of human bc1) of the same molecule?
Answer: 7.73%

Question: And the IC50 [5]?
Answer: 6 ± 1 nM

Question: For `COc1cc(F)ccc1-c1c(C)[nH]c2nc(N)nc(C)c12` [Compound 2, 5-(4-Fluoro-2-methoxyphenyl)-4,6-dimethyl-7H-pyrrolo[2,3-d]pyrimidin-2-amine], which IC50 (T. cruzi CYP51) is on record?
Answer: > 100000 nM

Question: What about the AUC(0-t) ([1]; 50 mg/kg, compound 2 50mg/kg bid, 21-day study, read-out: AUC0-7h Day 1) of the same molecule?
Answer: 5280 ± 1230 ng·h/mL

Question: And the AUC(0-t) ([1]; 50 mg/kg, compound 2 50mg/kg bid, 21-day study, read-out: AUC0-7h Day 21)?
Answer: 8860 ± 1210 ng·h/mL

Question: And the Cmax ([1]; 50 mg/kg, compound 2 50mg/kg bid, 21-day study, read-out: Cmax Day 1)?
Answer: 870 ± 196 ng/mL

Question: What about the Cmax ([1]; 50 mg/kg, compound 2 50mg/kg bid, 21-day study, read-out: Cmax Day 21) of the same molecule?
Answer: 1470 ± 202 ng/mL

Question: What about the AUC(0-t) ([1]; 100 mg/kg, compound 2 100mg/kg bid (changed to qd after day 1), 10-day study, read-out: AUC0-7h Day 1) of the same molecule?
Answer: 6270 ± 1140 ng·h/mL

Question: And the AUC(0-t) ([1]; 100 mg/kg, compound 2 100mg/kg bid (changed to qd after day 1), 10-day study, read-out: AUC0-7h Day 10)?
Answer: 11500 ± 1950 ng·h/mL

Question: And the Cmax ([1]; 100 mg/kg, compound 2 100mg/kg bid (changed to qd after day 1), 10-day study, read-out: Cmax Day 1)?
Answer: 1250 ± 236 ng/mL

Question: What about the Cmax ([1]; 100 mg/kg, compound 2 100mg/kg bid (changed to qd after day 1), 10-day study, read-out: Cmax Day 10) of the same molecule?
Answer: 2260 ± 315 ng/mL

Question: And the EC50 (Vero host cells; read-out: Vero EC50)?
Answer: > 50000 nM

Question: And the EC50 (Vero host cells; [8])?
Answer: > 50100 nM

Question: What about the EC50 ([3]; read-out: Trypomastigotes EC50) of the same molecule?
Answer: 30 nM

Question: And the EC50 [3, 9]?
Answer: 31.6 nM

Question: And the IC50 [5]?
Answer: 8 ± 1 nM
